In PMC10285648, “iTAG an optimized IMiD-induced degron for targeted protein degradation in human and murine cells” (iScience, 2023):
Peptide text beside a SMILES is read from it. * marks the point of attachment. Cbz = O=C(OCc1ccccc1)*

Experiments:
[1] = test system: cMYC-EGFP-DCD19; assay: Flow cytometry of EGFP signal, cMYC-EGFP-DCD19 in HMEC; format: cell-based, human; conditions: 10uM, 4h
Excerpt: (§1) To systematically delineate the optimal DCD/degrader combination for targeted protein degradation, we undertook a matrix approach evaluating all 23 DCD tags against 6 small molecule degraders. […] To control for any potential off-target effects of the IMiD/CeLMOD agents that could indirectly affect the target of interest, we designed controls in which the specific DCD and the EGFP sequences were interspaced by a P2A ribosomal “skipping” sequence,[32] leading to separate translation of the DCD and the target protein (Figure 1A). These constructs were then inserted into a doxycycline-inducible lentiviral vector system and stably expressed in hTERT immortalized human mammary epithelial cells (HMEC), a suitable model to assess the functional consequences of cMYC degradation. cMYC was tagged at the C-terminus end for the initial screening experiments.
(§2) Figure 1 Design and experimental evaluation of the DCD tags (A) Representation of the experimental pipeline used to evaluate the different DCD constructs. […] Median EGFP intensity was measured in each condition using flow cytometry (3 independent experiments, normalized to the control and represented as mean ± SD). […] The protein lysates were probed for cMYC levels using western blotting. […] Target loss was evaluated either by measuring EGFP median intensity using flow cytometry or western blotting for cMYC protein (3 independent experiments, normalized to the control and represented as mean ± SD). […] Target loss was evaluated as in (D) (3 independent experiments, normalized to the control and represented as mean ± SD). […] Protein lysates were collected and probed for cMYC and p21 using western blotting. […] Protein lysates were collected and probed for cMYC and p21 using western blotting. […] These were left out as controls with no test substance.
(§3) Following degrader treatment cells were collected and DAPI was added to the cell suspension at 1 μg/mL to allow the exclusion of dead cells. EGFP signal was measured using BD LSR II flow cytometer (BD Biosciences). FlowJo 10 Software (FlowJo) was used for data processing.

[2] = test system: CT26 cells; assay: Quantitative multiplexed proteomics of CT26 cells treated with thalidomide derivatives; format: cell-based, mouse; conditions: CT26, 10uM, 24h
Procedure: After showing that iTAG was active in mouse cells, we explored whether more potential degrons were active in the murine context. […]2216[50] and profiled the cellular proteomes using quantitative multiplexed proteomics. […] Data are plotted as Log2 fold change relative to DMSO versus Log10 of p value. (B) Proteome of CT26 CRBN KO cells treated with 10uM of FPFT2216 for 24h analyzed and plotted as in (A). (C) HEK293T, CT26, AT3 and 4434 cells treated with 10uM of FPFT2216 for 24h in presence of absence of MLN4924. […] were analyzed using western blotting. (D) Structural representation of PDE6D with the critical […] highlighted in red. (E) CT26, AT3 and 4434 cells transiently expressing WT or […] mutant Flag-PDE6D treated with 10uM of FPFT2216 for 16h. (F) Docking model for FPFT-2216 (in magenta) in the binding site of mouse CRBN (in orange). H-bond interactions are shown as cyan dashes. (G) Binding model for the ternary complex formed by mouse CRBN (in orange), mouse PDE6D (in cyan) and FPFT-2216 (in magenta), showing the […] loop close to the molecular glue. Samples for quantitative proteomics were prepared using the […] workflow.[60] Briefly, the cell pellets were lysed in a buffer containing 150 μL 0.1 M triethylammonium bicarbonate (TEAB), 1% sodium deoxycholate (SDC), 10% isopropanol, 50mM NaCl, 5 mM tris-2-carboxyethyl phosphine (TCEP), 10 mM iodoacetamide (IAA), universal nuclease, and supplemented with protease and phosphatase inhibitors. Samples were bath sonicated for 5 min, incubated at RT for 45 min and protein concentration was measured with the Bradford Protein Assay (Biorad) according to manufacturer instructions. Aliquots containing 30 μg of total protein were used for protein digestion. The resultant peptides were labeled with a tandem mass tag (TMTpro) multiplex reagent vial (Thermo Scientific) according to the manufacturer instructions. All the TMT-labelled samples were combined in equal amounts to a single tube. The TMT-peptide mixture was acidified with 1% formic acid and the precipitated SDC was removed by centrifugation. The sample was then dried with a centrifugal vacuum concentrator. LC-MS analysis was performed on the Dionex Ultimate 3000 UHPLC system coupled with the Orbitrap Lumos mass spectrometer (Thermo Scientific). Samples were analyzed with the EASY-Spray C18 capillary column (75 μm × 50 cm, 2 μm) at 50°C. […] MS3 quantification was obtained with higher-energy collisional dissociation (HCD) fragmentation of the top 5 most abundant CID fragments isolated with synchronous precursor selection (SPS). […] The SEQUEST-HT search engine was used to analyze the acquired mass spectra in Proteome Discoverer 2.4 (Thermo Scientific) for protein identification and quantification. […]

[3] = test system: cMYC-EGFP-DCD23; assay: Degradation of cMYC-EGFP-DCD23 in HMEC (flow cytometry, western blotting); format: cell-based, human; conditions: co-treatment with CC220 (10μM), 4h, western blotting
Excerpt: as §1, §2, §3
(§4) Cells were lysed with SDS lysis buffer (2% SDS, 10% Glycerol, 50mM Tris pH 6.8) and boiled at 95°C for 30min. Protein concentration was measured using Pierce BCA Protein Assay Kit (ThermoFischer) following manufacturer’s recommendations. Samples were ran in NuPAGETM 10% Bis-Tris Midi electrophoresis gels (Invitrogen) using NuPAGETM MES SDS running buffer (ThermoFischer Scientific).
(§5) For western blotting membranes were blocked in a solution of 5% (w/v) bovine serum albumin (BSA; Sigma-Aldrich) dissolved in TBS-0.1% Tween 20 (Sigma-Aldrich) then incubated at 4°C overnight with the primary antibodies diluted in 5% (w/v) BSA/TBS-T. The membranes where then washed and incubated with anti-mouse and/or anti-rabbit secondary antibodies (LI-COR Biosciences) for 2h at RT diluted in 5% (w/v) BSA/TBS-T then washed and imaged using the LI-COR Odyssey (LI-COR Biosciences). Images were analyzed using Image Studio Lite software (LI-COR Biosciences).

[4] = test system: N-terminally tagged cMYC, RBM39, BRD4 (Flag-HA-DCD23 or Flag-HA-FKBP12^[F36V]); assay: Western blotting, iTAG versus dTAG fused proteins in SUM159; format: cell-based, human
Procedure: The fusion constructs were stably expressed in SUM159 cells and loss of protein was determined by western blotting.
(§6) The protein lysates were probed for HA using western blotting. […] The protein lysates were probed for HA using western blotting. […] Median EGFP intensity was measured in each condition using flow cytometry. (3 independent experiments, represented as mean ± SD).
The dTAG system has also been adapted to direct targets to the E3 CRL2^VHL using the PROTAC dTAG^V-1^16. […] We evaluated the degradation N-terminally tagged cMYC and RBM39 dTAG^V-1, we included BRD4 as a control as it was reported to be a well degraded target in the initial dTAG optimization (Figure 3C).[15]
(§7) For the pHAGE-PGK constructs: DCD23, SuperDegron and FKBP12^F36V were separately cloned into a pHAGE-PGK DEST backbone. cDNA encoding the indicated protein was then cloned from pENTR221 into the pHAGE-PGK-DCD23, pHAGE-PGK-SuperDegron or pHAGE-PGK-FKBPF36V DEST vector using Gateway cloning. SUM159 cells were transduced with the indicated lentivirus and selected with puromycin.
as §4, with “Scientific). Proteins were subsequently transferred to an Immobilon-P polyvinylidene Difluoride (PVDF) membrane (Merck Millipore) using the wet-transfer method (Bio-Rad) in a transfer buffer consisting of 20% (v/v) methanol and 10% protein electrophoresis buffer (24.77 mM Tris and 0.192 M glycine).” for “Scientific).”
as §5

[5] = test system: N-terminally tagged EGFP; assay: Flow cytometry of N-terminally tagged EGFP in SUM159 (iTAG, SD, dTAG); format: cell-based, human; conditions: SUM159, 4h, normalized values; dTAG-13 for FKBP12 F36V, CC220 for SD and iTAG
Procedure: as §6
As we were finalizing our study on iTAG, a similar IMiD based degron was publish by the Ebert group.[28] The SuperDegron (SD) a 60 amino acid tag based on a chimera of Aiolos/ZFP91 was used to generate degradable chimeric antigen receptors (CAR).[28]
as §7

## Cc1nc2cccc(N)c2c(=O)n1C1CCC(=O)NC1=O (stereo not drawn) [CC122, Avadomide]
[1]
  loss of cMYC-EGFP signal: robust loss of cMYC-EGFP signal

## O=C1CCC(N2Cc3cc(CNC(=O)C(F)(F)c4ccc(Cl)cc4)ccc3C2=O)C(=O)N1 (stereo not drawn) [CC90009]
[2]
  effect on cellular proteome: no impact

## CC(C)C[C@@H](C=O)NC(=O)[C@H](CC(C)C)NC(=O)[C@H](CC(C)C)NC(=O)OCc1ccccc1 [MG132] (Cbz-Leu-Leu-Leu-aldehyde)
[3]
  effect on CC220-induced cMYC degradation: inhibited cMYC degradation

## NS(=O)(=O)OC[C@@H]1C[C@@H](n2ccc3c(N[C@H]4CCc5ccccc54)ncnc32)C[C@@H]1O [MLN4924]
[3]
  effect on CC220-induced cMYC degradation: inhibited cMYC degradation

## Nc1cccc2c1C(=O)N(C1CCC(=O)NC1=O)C2=O (stereo not drawn) [Pomalidomide]
[1]
  loss of cMYC-EGFP signal: robust loss of cMYC-EGFP signal

## O=C1CCC(N2C(=O)c3ccc(NS(=O)(=O)c4ccccc4OC(F)(F)F)cc3C2=O)C(=O)N1 (stereo not drawn) [StJude6989]
[2]
  effect on cellular proteome: no impact

## O=C1CCC(N2C(=O)c3ccccc3C2=O)C(=O)N1 (stereo not drawn) [Thalidomide]
[1]
  loss of cMYC-EGFP signal: robust loss of cMYC-EGFP signal

## CC[C@H](C(=O)N1CCCC[C@H]1C(=O)O[C@H](CCc1ccc(OC)c(OC)c1)c1ccccc1OCC(=O)NCCCCCCOc1cccc2c1C(=O)N(C1CCC(=O)NC1=O)C2=O)c1cc(OC)c(OC)c(OC)c1 (stereo partly drawn) [dTAG-13]
[4]; SUM159, dTAG-13 on dTAG, CC220 on iTAG
  concentrations at which targets are degraded: less pronounced or even not observed at high concentrations
[4]; SUM159, dTAG-13 on dTAG, CC220 on iTAG, 1, 2 or 4h
  time of onset of degradation of cMYC and RBM39: moderate degradation only after 4h

## CC[C@H](C(=O)N1CCCC[C@H]1C(=O)O[C@H](CCc1ccc(OC)c(OC)c1)c1ccccc1OCC(=O)NCCCCCCC(=O)N[C@H](C(=O)N1C[C@H](O)C[C@H]1C(=O)N[C@@H](C)c1ccc(-c2scnc2C)cc1)C(C)(C)C)c1cc(OC)c(OC)c(OC)c1 [dTAG^V-1]
[4]; SUM159, BRD4, cMYC, RBM39, 4h
  degradation compared between dTAG variants: more robust degradation compared to dTAG-13

## FKBP12^[F36V]: mutant FKBP12 protein tag of the dTAG system, degraded with dTAG-13
[5]
  DC50: 0.38 nM
  DCmax: 95%
